Assay results from article PMC6289163 (Tuberculosis (Edinburgh, Scotland), 2018).

Assays:
[1] = tested on: intracellular M. tuberculosis H37Rv in primary human macrophages; format: cell-based, Mycobacterium tuberculosis; conditions: positive control, 0.1 μg/ml, 0.7 μM; 6 days; not shown
[2] = tested on: BCG expressing luxAB; format: cell-based, Mycobacterium bovis bacillus Calmette-Guerin (BCG) Montreal; conditions: 6.3-100 μM

Row | Compound | intracellular killing [1] | mycobacterial inhibitory capacity [2]
1 | NNC(=O)c1ccncc1 [Isoniazid] | same intracellular killing as 50 μM of NZX | 
2 | WKWLKKWIK-OHxTFA [WKWLKKWIKG-OHxTFA] |  | bacterial killing capacity was overall lower than that of WKWLKKWIKG-NH2xHOAc
